Results on 28 compounds are retold here after ChEMBL document CHEMBL1201862, “PubChem BioAssay data set” (2004).

Calls of active or inactive are those of the source.

Assay [1] can be described thus: A Cell Based Secondary Assay To Explore Cytotoxicity of Compounds that Sensitize Mycobacterium Tuberculosis to Beta-Lactam Antibiotics. The assay is classed as functional.
Assay [2] addresses T1, Calpain-2 catalytic subunit (Sus scrofa, UniProt P43367).
T1 sequence (P43367 whole entry): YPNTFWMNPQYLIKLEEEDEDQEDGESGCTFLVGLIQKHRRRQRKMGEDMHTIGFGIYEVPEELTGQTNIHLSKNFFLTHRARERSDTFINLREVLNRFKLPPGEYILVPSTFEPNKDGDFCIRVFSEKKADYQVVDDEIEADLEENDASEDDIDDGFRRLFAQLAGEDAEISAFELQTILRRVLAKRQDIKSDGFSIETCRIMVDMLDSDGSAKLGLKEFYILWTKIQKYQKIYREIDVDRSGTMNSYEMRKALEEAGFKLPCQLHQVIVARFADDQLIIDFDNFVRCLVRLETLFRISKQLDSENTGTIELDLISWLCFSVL
The experiment in a line: m-calpain protease blockers, concentration series – biochemical, fluorogenic peptide substrate, dose response (AID 1420). It counts as functional.

In assay [3] the target is T2, Polyadenylate-binding protein 1 (Homo sapiens, UniProt P11940). Put plainly: MLLE domain peptide-binding blockers, IC50 – biochemical, fluorescence polarization, FITC-PAM2 peptide, dose response (AID 602259). The assay is classed as functional. The note with it: read-out: IC50_Mean.
T2 sequence (P11940 whole entry, the tested form may be a part): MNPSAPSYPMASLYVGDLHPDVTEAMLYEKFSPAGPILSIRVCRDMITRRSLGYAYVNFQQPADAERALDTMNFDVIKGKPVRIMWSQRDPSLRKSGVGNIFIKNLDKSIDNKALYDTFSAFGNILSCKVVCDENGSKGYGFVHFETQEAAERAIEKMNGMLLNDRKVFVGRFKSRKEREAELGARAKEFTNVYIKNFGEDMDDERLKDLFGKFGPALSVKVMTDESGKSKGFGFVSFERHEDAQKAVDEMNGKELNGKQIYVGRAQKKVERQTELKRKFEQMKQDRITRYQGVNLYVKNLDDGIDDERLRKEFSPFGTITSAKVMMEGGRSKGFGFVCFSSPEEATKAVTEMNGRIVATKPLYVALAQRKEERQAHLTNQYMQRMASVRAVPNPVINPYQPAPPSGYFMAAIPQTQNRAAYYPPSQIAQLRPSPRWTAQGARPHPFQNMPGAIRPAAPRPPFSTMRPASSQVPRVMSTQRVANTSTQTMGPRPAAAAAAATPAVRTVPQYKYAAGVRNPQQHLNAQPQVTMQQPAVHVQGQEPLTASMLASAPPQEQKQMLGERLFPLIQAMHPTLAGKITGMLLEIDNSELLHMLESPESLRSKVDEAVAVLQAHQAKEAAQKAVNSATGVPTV
Assay [4] concerns the target T2, Polyadenylate-binding protein 1. The experiment in a line: MLLE binding blockers, Cy5 peptide tracer – biochemical, fluorescence polarization, Cy5-PAM2 peptide, secondary, miRNA deadenylation inhibitor project, dose response (AID 602260). It counts as functional. The note with it: read-out: IC50_Mean.
Assay [5] has as its target FAD-linked sulfhydryl oxidase ALR (Homo sapiens, UniProt P55789). The experiment in a line: ALR-catalysed DTT oxidation blockers – biochemical, H2O2 detection, luminescence, cherry-pick, dose response (AID 493248).
The next assay deals with Paired box protein Pax-8 (Homo sapiens, UniProt Q06710). Put plainly: PAX8 transcriptional activity inhibition in RMG-I – RMG-I cells, luciferase, cherry-pick, dose response (AID 687027).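 Further: luciferase reporter driven by Pax8 target thyroperoxidase promoter measured by SteadyGlo luminescence.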 The assay is classed as functional, cell-based.
Sequence of Paired box protein Pax-8 (Q06710 whole entry): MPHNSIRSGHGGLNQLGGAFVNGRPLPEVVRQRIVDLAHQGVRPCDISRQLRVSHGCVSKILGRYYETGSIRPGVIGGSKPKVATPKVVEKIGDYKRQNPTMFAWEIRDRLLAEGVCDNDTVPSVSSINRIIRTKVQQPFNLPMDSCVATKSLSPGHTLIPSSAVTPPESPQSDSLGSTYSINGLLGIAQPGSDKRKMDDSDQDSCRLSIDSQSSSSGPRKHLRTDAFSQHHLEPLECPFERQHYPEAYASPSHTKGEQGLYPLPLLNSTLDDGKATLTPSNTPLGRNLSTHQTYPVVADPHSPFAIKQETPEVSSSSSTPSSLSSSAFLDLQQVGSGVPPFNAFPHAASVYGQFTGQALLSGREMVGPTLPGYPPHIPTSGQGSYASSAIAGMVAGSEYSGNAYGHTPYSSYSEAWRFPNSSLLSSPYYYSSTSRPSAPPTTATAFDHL
The nature of assay [6]: OVCAR-3 cell viability loss – plate reader, dry powder samples, PAX8 inhibitor project, dose response (AID 743044). It counts as functional, cell-based.
Assay [7] concerns the target T3, Mannose-6-phosphate isomerase (Homo sapiens, UniProt P34949).
T3 sequence (P34949 whole entry): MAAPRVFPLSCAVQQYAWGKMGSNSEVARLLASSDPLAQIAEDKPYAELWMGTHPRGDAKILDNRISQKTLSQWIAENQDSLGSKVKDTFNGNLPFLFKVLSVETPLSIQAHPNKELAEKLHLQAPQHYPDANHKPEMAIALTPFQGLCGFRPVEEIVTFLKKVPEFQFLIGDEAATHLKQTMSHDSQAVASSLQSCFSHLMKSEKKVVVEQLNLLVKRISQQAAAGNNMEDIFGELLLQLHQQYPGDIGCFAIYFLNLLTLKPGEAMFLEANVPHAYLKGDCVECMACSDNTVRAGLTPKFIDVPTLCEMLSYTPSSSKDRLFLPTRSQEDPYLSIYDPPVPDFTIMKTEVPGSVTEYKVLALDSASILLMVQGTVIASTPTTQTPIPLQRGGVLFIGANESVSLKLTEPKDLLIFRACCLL
The experiment in a line: MPI inhibition at elevated mannose 6-phosphate – biochemical, fluorescence intensity, high mannose 6-phosphate, primary screen (AID 1220).

Assay [8] is described as follows: Luminescence Cell-Based Dose Confirmation HTS to Identify Inhibitors of Platelet Dense Granule Release. [Related pubchem assays: 1663 (Primary HTS), 1678 (Summary of Project)]. It counts as functional.
The target in assay [9] is Luciferin 4-monooxygenase (Photinus pyralis, UniProt P08659). The experiment in a line: inhibition of purified Photinus pyralis luciferase – biochemical, luminescence, dose response (AID 1891).
Sequence of Luciferin 4-monooxygenase (P08659 whole entry): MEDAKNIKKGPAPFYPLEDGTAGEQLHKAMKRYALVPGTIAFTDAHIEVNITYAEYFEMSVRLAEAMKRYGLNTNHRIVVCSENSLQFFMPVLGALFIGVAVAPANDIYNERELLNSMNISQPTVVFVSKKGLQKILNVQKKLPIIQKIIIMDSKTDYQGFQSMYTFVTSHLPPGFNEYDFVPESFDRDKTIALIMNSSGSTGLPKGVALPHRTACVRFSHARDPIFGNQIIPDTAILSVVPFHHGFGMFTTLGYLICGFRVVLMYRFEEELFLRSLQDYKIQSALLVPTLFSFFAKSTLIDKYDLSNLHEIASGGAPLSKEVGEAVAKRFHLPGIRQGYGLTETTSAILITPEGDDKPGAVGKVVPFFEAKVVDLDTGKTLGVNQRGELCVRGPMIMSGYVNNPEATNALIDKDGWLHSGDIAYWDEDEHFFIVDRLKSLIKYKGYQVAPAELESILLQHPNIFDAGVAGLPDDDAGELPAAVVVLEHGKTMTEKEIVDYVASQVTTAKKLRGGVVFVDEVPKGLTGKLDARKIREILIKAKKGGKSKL
In assay [10] the test system is Streptococcus sp. 'group A'. Put plainly: Streptococcus pyogenes SK(-)GAS viability under kanamycin – luminescence, BacTiterGlo, confirmation, counter-screen for streptokinase expression inhibitor project, dose response (AID 1900). The assay is classed as functional, organism-based.
Another assay addresses T4, Streptokinase A (Streptococcus pyogenes serotype M1, UniProt P10520).
T4 sequence (P10520 whole entry): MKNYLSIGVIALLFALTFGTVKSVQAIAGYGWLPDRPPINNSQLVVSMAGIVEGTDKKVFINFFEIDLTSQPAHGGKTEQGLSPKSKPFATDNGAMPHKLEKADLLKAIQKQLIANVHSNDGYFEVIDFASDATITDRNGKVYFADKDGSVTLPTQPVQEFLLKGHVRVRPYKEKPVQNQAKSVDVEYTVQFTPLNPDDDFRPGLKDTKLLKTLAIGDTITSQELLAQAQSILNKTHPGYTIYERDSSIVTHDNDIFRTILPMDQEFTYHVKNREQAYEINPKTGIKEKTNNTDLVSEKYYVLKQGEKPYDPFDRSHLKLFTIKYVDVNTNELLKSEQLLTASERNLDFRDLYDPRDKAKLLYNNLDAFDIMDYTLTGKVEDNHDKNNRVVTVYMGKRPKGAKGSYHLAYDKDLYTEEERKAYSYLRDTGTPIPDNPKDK
Put plainly: viability-normalized secreted streptokinase activity reduction – plasminogen activation absorbance, OD405, dose response (AID 1914).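 Further: secreted streptokinase activity via plasminogen activation per viability signal from cell pellet.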 The assay is classed as functional, Streptococcus pyogenes M1 GAS.

Another assay has as its system Streptococcus. The experiment in a line: GAS UMAA2166 growth inhibition – luminescence, BacTiterGlo, counter-screen for streptokinase expression inhibitor project, dose response (AID 1915).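 Further: potency for reduction of bacterial viability or growth.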 The assay is classed as functional, organism-based.
Assay [11] in a line: P. falciparum Dd2 growth inhibitors, dose response, SYBR Green, cherry-picked samples (AID 1159567). It counts as functional, cell-based.
Assay [12] can be described thus: fluconazole-exposed Candida albicans growth modulators – fluorescence, retest, confirmation (AID 2467). The assay is classed as functional, cell-based.
Assay [13] can be described thus: NIH-3T3 fibroblast cytotoxicity, dose response, cytotoxicity control, cell-based, fluorescence, Alamar Blue, secondary assay (AID 2327).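 Further: NIH-3T3 mouse fibroblasts cultured with fluconazole at 8 µg/mL.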 The assay is classed as functional.
The target in assay [14] is T5, Rac GTPase-activating protein 1 (Homo sapiens, UniProt Q9H0H5).
T5 sequence (Q9H0H5 whole entry): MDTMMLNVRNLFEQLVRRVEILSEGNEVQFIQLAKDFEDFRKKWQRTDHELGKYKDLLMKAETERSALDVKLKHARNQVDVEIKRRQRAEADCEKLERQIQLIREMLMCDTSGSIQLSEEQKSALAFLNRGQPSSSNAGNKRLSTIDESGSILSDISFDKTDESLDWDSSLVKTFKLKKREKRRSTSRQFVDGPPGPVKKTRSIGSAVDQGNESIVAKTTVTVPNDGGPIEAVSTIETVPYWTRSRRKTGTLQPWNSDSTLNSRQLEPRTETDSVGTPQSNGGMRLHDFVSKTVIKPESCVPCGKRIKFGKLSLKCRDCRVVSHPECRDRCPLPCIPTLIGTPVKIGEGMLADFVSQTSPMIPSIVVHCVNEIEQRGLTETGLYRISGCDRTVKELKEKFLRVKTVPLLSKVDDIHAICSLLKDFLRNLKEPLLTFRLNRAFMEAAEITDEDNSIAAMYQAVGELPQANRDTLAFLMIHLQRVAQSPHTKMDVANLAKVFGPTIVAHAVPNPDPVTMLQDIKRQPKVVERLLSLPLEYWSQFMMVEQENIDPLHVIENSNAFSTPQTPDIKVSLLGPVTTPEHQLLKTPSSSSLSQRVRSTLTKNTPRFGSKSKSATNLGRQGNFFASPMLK
Put plainly: blockers of MgcRacGAP-driven Rac1 GTP hydrolysis – biochemical, ADP Hunter fluorescence, primary and confirmatory, confirmation (AID 624330). The assay is classed as functional.

A further assay has as its target Cytochrome P450 2C19 (Homo sapiens, UniProt P33261). The experiment in a line: Cytochrome panel assay with activity outcomes. Panel member name: p450-cyp2c19 Compounds with AC50 equal or less than 10 uM are considered active. It counts as functional. The note with it: read-out: AC50.

Sequence of FAD-linked sulfhydryl oxidase ALR (P55789 whole entry): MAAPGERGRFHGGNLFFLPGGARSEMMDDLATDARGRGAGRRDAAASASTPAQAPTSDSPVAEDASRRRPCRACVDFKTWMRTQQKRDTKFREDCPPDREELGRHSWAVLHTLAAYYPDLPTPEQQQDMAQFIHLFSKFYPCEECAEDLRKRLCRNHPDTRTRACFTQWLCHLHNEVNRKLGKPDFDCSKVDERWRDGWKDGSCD
Sequence of Cytochrome P450 2C19 (P33261 whole entry): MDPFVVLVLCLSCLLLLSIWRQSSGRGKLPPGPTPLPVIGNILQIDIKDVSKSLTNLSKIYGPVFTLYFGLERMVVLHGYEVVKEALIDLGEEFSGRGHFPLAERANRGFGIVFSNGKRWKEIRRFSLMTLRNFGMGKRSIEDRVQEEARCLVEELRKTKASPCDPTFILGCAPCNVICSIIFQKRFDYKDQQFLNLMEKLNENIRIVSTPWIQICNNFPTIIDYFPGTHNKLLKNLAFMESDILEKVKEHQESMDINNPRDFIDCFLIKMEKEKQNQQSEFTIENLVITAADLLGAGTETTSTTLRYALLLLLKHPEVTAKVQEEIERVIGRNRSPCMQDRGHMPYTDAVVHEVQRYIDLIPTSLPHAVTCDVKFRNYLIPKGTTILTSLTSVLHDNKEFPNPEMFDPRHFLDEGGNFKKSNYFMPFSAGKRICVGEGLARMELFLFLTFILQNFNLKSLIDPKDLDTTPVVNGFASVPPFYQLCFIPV

For the compound `COc1ccc(-c2cc(C(F)(F)F)nc(SCC(=O)Nc3sc4c(c3C#N)CCC4)n2)cc1`, the CC50 in assay [1] is > 40 µM (active).
Still for that read-out and setting: next, `Cc1c(C(=O)NC(=S)Nc2ccccc2N2CCCC2)cccc1[N+](=O)[O-]`: > 40 µM (active).
Consider `COc1ccc(-c2nc(NC(=O)CCNC(=O)c3ccco3)sc2C)cc1`, for which the IC50 in assay [2] is 3.03 µM (not active).
With `Cc1ccc(C2SCC(=O)N2c2ccccc2)cc1` (stereo not drawn), the IC50 in [3] and in assay [4] was > 66 µM (inactive) each time. For the same compound, the AC50 in assay [5] was < 0.005 µM (active).
Consider `Cc1ccc(N(CC(=O)Nc2cccc(C)c2)S(=O)(=O)c2cccc3nonc23)cc1`, for which, in assay [2], the IC50 is 1.1 µM (not active).
Regarding `O=C(Cc1ccccc1)N1CC[C@H]2[C@H](CO)Nc3ccc(C4=CCCCC4)cc3[C@H]21`, the AC50 on Paired box protein Pax-8 was 6.67 µM (active); in [6] it was 51.3 µM (active).
In the case of `CN(C(S)=Nc1ccc(SC(F)F)cc1)c1ccc(O)cc1`, the IC50 in assay [7] is given as > 50 µM (not active).
For the compound `Cc1cc(NC(=O)/C=C/c2ccccc2Cl)n(-c2nc3ccccc3[nH]2)n1`, the EC50 in assay [8] is 13.2 µM (active); in [9], 3.94 µM (active); in [10] it was 7.03 µM (active); at Streptokinase A it was > 150 µM (not active); in the assay on Streptococcus, > 150 µM (not active). For the same compound, the CC50 in assay [1] was 14.5 µM (active).
`COc1cccc(-c2ccc([C@@H]3[C@H](CO)N4CCCCN(C(=O)c5ccc(F)cc5)C[C@@H]34)cc2)c1`: the AC50 in assay [11] was 5.39 µM (active).
As for `Cc1ccc(NCc2nc3ccccc3n2CCOc2ccccc2)cc1`, the IC50 in assay [7] is > 50 µM (not active).
For the compound `O=C(C1=C[C@@H](c2ccc(Br)cc2)C[C@@H](OCc2ccc(CO)cc2)O1)N1CCN(Cc2ccc3c(c2)OCO3)CC1`, the CC50 in assay [1] is > 40 µM (active).
In the case of `C/C(=N\Nc1ccc([N+](=O)[O-])cc1)c1ccc(O)cc1`, the AC50 in [5] is 0.136 µM (active). In addition, the figures for the EC50 in [12] and in assay [13] were > 38 µM (not active) and > 150 µM (inactive), respectively.
`O=C(CCc1c[nH]c2ccccc12)NCCc1ccc(O)cc1`: in assay [14], the IC50 is 112 µM (active). Besides, the AC50 in assay [5] was 7.62 µM (active).
Take `CCOc1ccc(NC(=O)CCC(=O)n2nc(C)cc2C)cc1`: the IC50 in assay [2] is < 0.4 µM (not active).
Regarding `CCOC(=O)c1c(C)[nH]c(C)c1C(=O)COC(=O)/C=C/c1ccc(OC(F)F)cc1`, the CC50 in [1] is > 40 µM (active).
Take `CSCc1ccc(C(=O)N2CCCC(Nc3ccc(F)cc3)C2)o1` (stereo not drawn): in assay [5], the AC50 is 2.76 µM (active).
As for `Cn1nnnc1Sc1ncnc2scc(-c3ccccc3)c12`, the CC50 in assay [1] was 30 µM (active).
For the compound `CC(=N\Nc1ccc(Cl)cc1)/C(=N/O)C(=O)Nc1ccccc1`, the AC50 in [5] was 0.104 µM (active).
For `CN(c1ccc(O)cc1)c1nc(-c2cccnc2)cs1`, the IC50 in assay [14] was 17.5 µM (active). For the same compound, the AC50 in [5] was 3.84 µM (active).
`Cc1ccc2c(c1)CCCN2C(=O)c1ccc2c(c1)OCO2`: the IC50 in assay [2] is given as > 50 µM (not active).
Take `CCN(CC)c1ccc(/C=N/NC(=O)CC(C)C)cc1`: the AC50 in assay [5] is 2.97 µM (active).
`O=C(O)CCC(=O)N1CCN(c2ccc(C(=O)c3ccc(F)cc3)cc2)CC1`: the IC50 in [2] is > 50 µM (not active).
In the case of `CCOc1cc(/C=N\NC(=O)c2ccc(NC(=O)C(C)(C)C)cc2)ccc1OC(=O)c1ccc(C)cc1`, the CC50 in assay [1] is > 40 µM (active).
On to `C/C(=N\OCC(=O)Nc1ccc(Br)cc1)c1cccs1`, for which the IC50 in assay [2] is given as > 50 µM (not active).
For `Cc1ccc(NCc2ccc(O)c3ncccc23)cc1`, the IC50 in assay [7] is reported as > 50 µM (not active). For the same compound, the values for the EC50 in [12] and in assay [13] were > 38 µM (not active) and > 160 µM (inconclusive), respectively.
For the compound `C[C@H](CO)N1C[C@H](C)[C@H](CN(C)Cc2ccc(Oc3ccccc3)cc2)Oc2ccc(NS(=O)(=O)c3ccc(Cl)cc3)cc2CC1=O`, the AC50 in [11] was 7.51 µM (active).
As for `C=CCSc1nnc(-c2cc3c(-c4ccccc4)nn(C)c3s2)n1C`, the AC50 on Cytochrome P450 2C19 was 17.8 µM (inconclusive). Moreover, in assay [1], the CC50 is > 40 µM (active).
Consider `[O-][S+](N1CCc2ccccc21)C12CC3CC(CC(C3)C1)C2` (stereo not drawn), for which the IC50 in assay [2] is on record as 10.8 µM (not active).
